According to article PMC12298827, “Subchronic Toxicities of Four Per- and Polyfluoroalkyl Substances (PFASs) by Oral Exposure in Sprague–Dawley Rats” (Toxics, 2025):

Test system: male and female Sprague–Dawley rats
Assay: 90-day subchronic oral gavage toxicity study
Format: in vivo, rat
Conditions: male
Procedure: Subchronic (90-day) studies were performed in accordance with current U.S. EPA’s Toxic Substances Control Act Good Laboratory Practice (GLP) Standards, with the following two general exceptions to the GLP guidelines: Analysis of the dose formulations was conducted according to RTI-approved Standard Operating Procedures, and corn oil (the vehicle) was not characterized (certificate of analysis from the vendor is available in the appendices to the final reports). Male and female Sprague–Dawley rats (five dose levels plus a control, n = 10/sex/dose group, corn oil vehicle dose volume of 3 mL/kg; oral gavage) were used in these studies, and the rats were euthanized on SD 91. The dose levels for PFHI were 0, 12.5, 25, 50, 100, and 200 mg/kg-day. The dose levels for MHFPK were 0, 18.8, 37.5, 75, 150, and 300 mg/kg-day. The dose levels for PFNAC were 0, 0.1, 0.3, 1.0, 3.0, and 10 mg/kg-day for male rats and 0, 0.3, 1.0, 3.0, 10, and 30 mg/kg-day for female rats. For CTFPA, the dose levels were 0, 1.9, 3.8. 7.5, 15, and 30 mg/kg-day for male rats and 0, 6.3, 12.5, 25, 50, and 100 mg/kg-day for female rats. For each PFAS, three batches of dosing solution were prepared. The time between the batch preparation of the dosing solutions ranged between 29 and 39 days. Blood samples were collected from all the rats at termination for serum chemistry, hematology, coagulation, and the analysis of the parent PFAS chemical in the plasma. In vivo data collection and further detail on the endpoints examined postmortem are described below.
The rats were observed twice daily for morbidity and mortality throughout the study period. At least once prior to randomization to test groups and weekly thereafter, the rats were physically examined, and bodyweights were obtained. Feed consumption was quantified weekly starting on SD 1.
Neurotoxicity was evaluated using the functional observational battery (FOB) and measuring locomotor activity (LMA) 2–4 h post dosing on SDs 78–80 and 80–84, respectively. For both the 14- and 90-day studies, an ophthalmologic examination was conducted prior to randomization and near the end of the study, using indirect ophthalmoscopy and slit–lamp biomicroscopy (as needed) after the administration of a mydriatic solution.
Hematology, biochemistry, and coagulation endpoints were measured at the termination of the study. A Siemens Advia 2120i hematology analyzer (Siemens Healthineers, Erlangen, Germany) was used to measure (or calculate) the parameters related to the complete blood count, leukocyte differential count, and reticulocyte count. The hematology parameters are listed and described in Table 2. The prothrombin time […] and activated partial thromboplastin time (APTT) were measured using an Instrumentation Laboratory (Bedford, MA, USA) ACL Elite Pro coagulation analyzer (laser–nephelometric centrifugal method).
At necropsy, the rats were visually examined for external abnormalities and organ weights (absolute and relative to the BW and brain weight), which were recorded (paired organs weighed together). The tissues were preserved in 10% neutral buffered formalin (NBF), except for the ocular tissues, testes, and epididymides, which were preserved in modified Davidson’s fixative and later transferred to 10% NBF. Bone marrow smears were prepared from the femurs, and the slides were air-dried, fixed in methanol, stained, and stored at room temperature for possible future evaluation. The preserved tissues were embedded in paraffin, sectioned, stained with hematoxylin and eosin, and examined by a board-certified veterinary pathologist.
Statistical analysis was performed using Provantis™ Version 10 or greater (Instem LSS, Limited; Stone, Staffordshire, UK). Differences among the treatment groups compared to the control were evaluated using one-way analysis of variance (ANOVA) if the underlying assumptions of a normal distribution (Shapiro–Wilk test) and the homogeneity of the variance (Levene’s test) were satisfied. […]

C=CC(=O)OCC(F)(F)C(F)(F)C(F)(F)C(F)(F)C(F)(F)C(F)(F)C(F)(F)C(F)F [PFNAC, 1H,1H,9H-Perfluorononyl acrylate]
% Diff, Total Food Consumed (1.0 mg/kg-day): 6.25%
A/G (1.0 mg/kg-day): 1.11±0.09 ratio
ABNEUT (1.0 mg/kg-day): 2.627±0.787 K/µL
ABRETi (1.0 mg/kg-day): 186.29±26.35 10^9/L
ABSEOS (1.0 mg/kg-day): 0.097±0.026 K/µL
ALB (1.0 mg/kg-day): 3.99 ± 0.25 g/dL
ALPi (1.0 mg/kg-day): 327.4±48.9 U/L
APTT (1.0 mg/kg-day): 12.70 s
BUN (1.0 mg/kg-day): 20.4 ± 2.6 mg/dL
CHOL (1.0 mg/kg-day): 62.6 ± 7.6 mg/dL
GLOB (1.0 mg/kg-day): 3.59 ± 0.18 g/dL
GLUC (1.0 mg/kg-day): 126.1 ± 10.3 mg/dL
HCT (1.0 mg/kg-day): 45.42±2.38%
HGB (1.0 mg/kg-day): 13.91 ± 0.69 g/dL
Kidney Weight (1.0 mg/kg-day): 3.57 g
Kidney/Body Weight (1.0 mg/kg-day): 0.61%
Kidney/Brain Weight (1.0 mg/kg-day): 164%
Liver Weight (1.0 mg/kg-day): 20.59 g
Liver/Body Weight (1.0 mg/kg-day): 3.48%
Liver/Brain Weight (1.0 mg/kg-day): 949%
MPV (1.0 mg/kg-day): 7.90 ± 0.61 fL
PT (1.0 mg/kg-day): 15.56 s
RBC (1.0 mg/kg-day): 8.519±0.467 M/µL
Total BW change (1.0 mg/kg-day): 314.97 g
Total Food Consumed (1.0 mg/kg-day): 2357 g
% BW Gain (3.0 mg/kg-day): 89.59%
% Diff, % BW Gain (3.0 mg/kg-day): -11.27%
% Diff, Total BW change (3.0 mg/kg-day): -11.64%
% Diff, Total Food Consumed (3.0 mg/kg-day): 7.33%
A/G (3.0 mg/kg-day): 1.18±0.10 ratio
ABNEUT (3.0 mg/kg-day): 2.351±0.464 K/µL
ABRETi (3.0 mg/kg-day): 190.46±33.42 10^9/L
ABSEOS (3.0 mg/kg-day): 0.095±0.043 K/µL
ALB (3.0 mg/kg-day): 4.10 ± 0.25 g/dL
ALPi (3.0 mg/kg-day): 286.4±30.8 U/L
APTT (3.0 mg/kg-day): 12.24 s
BUN (3.0 mg/kg-day): 22.6 ± 3.6 mg/dL
CHOL (3.0 mg/kg-day): 68.5 ± 12.2 mg/dL
GLOB (3.0 mg/kg-day): 3.48 ± 0.13 g/dL
GLUC (3.0 mg/kg-day): 126.8 ± 13.8 mg/dL
HCT (3.0 mg/kg-day): 46.18±2.11%
HGB (3.0 mg/kg-day): 14.09 ± 0.70 g/dL
Kidney Weight (3.0 mg/kg-day): 3.57 g
Kidney/Body Weight (3.0 mg/kg-day): 0.65%
Kidney/Brain Weight (3.0 mg/kg-day): 164%
Liver Weight (3.0 mg/kg-day): 20.96 g
Liver/Body Weight (3.0 mg/kg-day): 3.81%
Liver/Brain Weight (3.0 mg/kg-day): 966%
MPV (3.0 mg/kg-day): 7.79 ± 0.43 fL
PT (3.0 mg/kg-day): 14.98 s
RBC (3.0 mg/kg-day): 8.351±0.354 M/µL
Total BW change (3.0 mg/kg-day): 266.69 g
Total Food Consumed (3.0 mg/kg-day): 2381 g
% BW Gain (10 mg/kg-day): 80.97%
% Diff, % BW Gain (10 mg/kg-day): -19.80%
% Diff, Total BW change (10 mg/kg-day): -20.93%
% Diff, Total Food Consumed (10 mg/kg-day): 2.34%
A/G (10 mg/kg-day): 1.15±0.10 ratio
ABNEUT (10 mg/kg-day): 2.413±0.948 K/µL
ABRETi (10 mg/kg-day): 172.74±32.27 10^9/L
ABSEOS (10 mg/kg-day): 0.101±0.025 K/µL
ALB (10 mg/kg-day): 3.90 ± 0.20 g/dL
ALPi (10 mg/kg-day): 315.8±44.0 U/L
APTT (10 mg/kg-day): 12.57 s
BUN (10 mg/kg-day): 22.4 ± 2.6 mg/dL
CHOL (10 mg/kg-day): 68.0 ± 15.7 mg/dL
GLOB (10 mg/kg-day): 3.39 ± 0.19 g/dL
GLUC (10 mg/kg-day): 122.6 ± 10.8 mg/dL
HCT (10 mg/kg-day): 44.76±2.84%
HGB (10 mg/kg-day): 13.84 ± 0.78 g/dL
Kidney Weight (10 mg/kg-day): 3.53 g
Kidney/Body Weight (10 mg/kg-day): 0.69%
Kidney/Brain Weight (10 mg/kg-day): 170%
Liver Weight (10 mg/kg-day): 21.12 g
Liver/Body Weight (10 mg/kg-day): 4.16%
Liver/Brain Weight (10 mg/kg-day): 1016%
MPV (10 mg/kg-day): 7.66 ± 0.42 fL
PT (10 mg/kg-day): 15.81 s
RBC (10 mg/kg-day): 8.118±0.277 M/µL
Total BW change (10 mg/kg-day): 238.64 g
Total Food Consumed (10 mg/kg-day): 2270 g
